According to ChEMBL document CHEMBL1921784, “Benzobistriazinones and related heterocyclic ring systems as potent, orally bioavailable positive allosteric AMPA receptor modulators” (Bioorg Med Chem Lett, 2011):
Activity calls are given as the source filed them. The rule behind the calls is not given here.

Legend:
Rattus norvegicus [1] = assay: Positive allosteric modulation of AMPA receptor in Sprague-Dawley rat adult hippocampus dentate gyrus assessed as increase in field excitatory postsynaptic potential amplitude at 1 mg/kg, ip infused for 30 mins relative to baseline; type: functional; conditions: route intraperitoneal
Rattus norvegicus [2] = organism: Rattus norvegicus; assay: Positive allosteric modulation of AMPA receptor in Sprague-Dawley rat embryonic hippocampal neuron assessed as concentration required to double the steady-state glutamate-induced current by patch-clamp assay; conditions: Hippocampus
Rattus norvegicus [3] = assay: Positive allosteric modulation of AMPA receptor in Sprague-Dawley rat adult hippocampus dentate gyrus assessed as increase in field excitatory postsynaptic potential amplitude at 5 mg/kg, ip infused for 30 mins relative to baseline; type: functional
Rattus norvegicus [4] = assay: Positive allosteric modulation of AMPA receptor in Sprague-Dawley rat adult hippocampus dentate gyrus assessed as increase in field excitatory postsynaptic potential amplitude at 10 mg/kg, ip infused for 30 mins relative to baseline; type: functional; conditions: route intraperitoneal
Rattus norvegicus [5] = assay: Positive allosteric modulation of AMPA receptor in Sprague-Dawley rat adult hippocampus dentate gyrus assessed as increase in field excitatory postsynaptic potential amplitude at 3 mg/kg, ip infused for 30 mins relative to baseline; type: functional; conditions: route intraperitoneal
[6] = Half life in rat; type: ADME, organism-based; conditions: in vivo
[7] = Oral bioavailability in rat; type: ADME, organism-based; conditions: in vivo
[8] = Half life in dog; type: ADME, organism-based, Canis lupus familiaris; conditions: in vivo
Rattus norvegicus [9] = assay: Positive allosteric modulation of AMPA receptor in Sprague-Dawley rat adult hippocampus dentate gyrus assessed as increase in field excitatory postsynaptic potential amplitude at 20 mg/kg, ip infused for 30 mins relative to baseline; type: functional; conditions: route intraperitoneal
[10] = Half life in cynomolgus monkey; type: ADME, organism-based, Macaca fascicularis; conditions: in vivo
[11] = Oral bioavailability in cynomolgus monkey; type: ADME, organism-based, Macaca fascicularis; conditions: in vivo

CD (Rattus norvegicus [2]) [µM] | Structure (SMILES) | Activity (Rattus norvegicus [3]; route intraperitoneal) [%] | also measured
0.28 | C[C@H](Cn1ncnn1)n1nnc2cc3c(=O)n(C)nnc3cc2c1=O | 46 | –
0.3 | CCn1nnc2cc3c(=O)n([C@H](C)Cn4ncnn4)nnc3cc2c1=O | 34 | –
0.25 | C#CCn1nnc2cc3c(=O)n([C@H](C)Cn4cnnn4)cnc3cc2c1=O | 1 | –
1.3 | C[C@H](Cn1nccn1)n1nnc2cc3c(=O)n(C4CC4)nnc3cc2c1=O | – | Activity (Rattus norvegicus [4]): 12%
0.008 | C[C@H](Cn1ncnn1)n1cnc2cc3c(=O)n([C@H](C)Cn4ncnn4)nnc3cc2c1=O | – | Activity (Rattus norvegicus [1]): 43%
1 | C[C@H](Cn1ncnn1)n1nnc2cc3c(=O)n(C4CC4)cnc3cc2c1=O | 16 | –
0.6 | C[C@H](Cn1ncnn1)n1cnc2cc3c(=O)n(C4CC4)nnc3cc2c1=O | 33 | half-life [6]: 1.6 h; bioavailability [7]: 100%; half-life [8]: 4.8 h
0.07 | C[C@H](Cn1cnnn1)n1cnc2cc3c(=O)n(C4CC4)nnc3cc2c1=O | 2 | –
0.28 | C[C@H](Cn1ncnn1)n1nnc2cc3c(=O)n(C4CC4)nnc3cc2c1=O | 37 | half-life [10]: 9.5 h; half-life [6]: 1.7 h; bioavailability [7]: 100%; half-life [8]: 3 h; bioavailability [11]: 100%
0.02 | C[C@H](Cn1ncnn1)n1cnc2cc3c(=O)n([C@H](C)Cn4cnnn4)nnc3cc2c1=O | 1 | –
0.5 | C#CCn1nnc2cc3c(=O)n([C@H](C)Cn4ncnn4)cnc3cc2c1=O | 11 | –
1.1 | C[C@H](Cn1cncn1)n1nnc2cc3c(=O)n(C4CC4)nnc3cc2c1=O | 7 | –
0.03 | C[C@H](Cn1ncnn1)n1cnc2cc3c(=O)n([C@H](C)Cn4ncnn4)cnc3cc2c1=O | 0 | –
1.4 | C[C@H](Cn1ncnn1)n1cnc2cc3c(=O)n(C4CC4)cnc3cc2c1=O | 2 | –

More lines, now with the values behind:

Structure (SMILES) | CD (Rattus norvegicus [2]) [µM] | Activity (Rattus norvegicus [3]; route intraperitoneal) [%] | also measured
C[C@H](Cn1ncnn1)n1nnc2cc3c(=O)n([C@H](C)Cn4ncnn4)nnc3cc2c1=O | 0.016 | – | Activity (Rattus norvegicus [1]): 59%
C#C[C@H](Cc1cccc(F)c1)n1nnc2cc3c(=O)n(C4CC4)nnc3cc2c1=O | 0.45 | 1 | –
Cc1nnn(C[C@@H](C)n2nnc3cc4c(=O)n(C5CC5)nnc4cc3c2=O)n1 | 3.1 | 7 | –
C[C@H](Cn1ncc(C#N)n1)n1cnc2cc3c(=O)n(C4CC4)nnc3cc2c1=O | – | – | Activity (Rattus norvegicus [4]): 3%
C[C@H](Cn1cnnn1)n1nnc2cc3c(=O)n(C)nnc3cc2c1=O | 0.08 | 19 | –
C[C@H](Cn1ncnn1)n1cnc2cc3c(=O)n(CCF)nnc3cc2c1=O | – | – | Activity (Rattus norvegicus [4]): 32%
C[C@H](Cn1ncnn1)n1cnc2cc3c(=O)n(CC(F)(F)F)nnc3cc2c1=O | – | – | Activity (Rattus norvegicus [4]): 7%
C[C@H](Cn1ccnn1)n1nnc2cc3c(=O)n(C4CC4)nnc3cc2c1=O | 0.37 | – | Activity (Rattus norvegicus [4]): 24%
C[C@H](Cn1cccn1)n1cnc2cc3c(=O)n([C@H](C)Cn4cccn4)cnc3cc2c1=O | 0.09 | 2 | –
C[C@H](Cn1nccn1)n1nnc2cc3c(=O)n([C@H](C)Cn4ncnn4)nnc3cc2c1=O | 0.07 | – | Activity (Rattus norvegicus [5]): 26%
C#C[C@H](Cn1ncnn1)n1nnc2cc3c(=O)n(C4CC4)nnc3cc2c1=O | – | 4 | –
C[C@H](Cn1nccn1)n1nnc2cc3c(=O)n(C)nnc3cc2c1=O | 2.1 | 7 | –
C[C@H](Cn1nccn1)n1cnc2cc3c(=O)n(C4CC4)nnc3cc2c1=O | – | – | Activity (Rattus norvegicus [4]): 9%
C[C@H](Cn1cnnn1)n1nnc2cc3c(=O)n(C4CC4)nnc3cc2c1=O | 0.07 | 11 | –
C[C@H](Cn1ccnn1)n1nnc2cc3c(=O)n([C@H](C)Cn4ccnn4)nnc3cc2c1=O | 0.06 | – | Activity (Rattus norvegicus [5]): 0%
C=CCn1nnc2cc3c(=O)n([C@H](C)Cn4ncnn4)nnc3cc2c1=O | – | 12 | –
C[C@H](Cn1nccn1)n1cnc2cc3c(=O)n(C)nnc3cc2c1=O | – | – | Activity (Rattus norvegicus [9]): 30%

Structure (SMILES) | CD (Rattus norvegicus [2]) [µM] | Activity (Rattus norvegicus [3]; route intraperitoneal) [%] | also measured
O=c1c2cc3nnn(C4CC4)c(=O)c3cc2nnn1CCn1ncnn1 | – | 1 | –
Cc1nnnn1C[C@@H](C)n1nnc2cc3c(=O)n(C4CC4)nnc3cc2c1=O | 0.25 | 8 | –
C[C@H](Cn1ncnn1)n1cnc2cc3c(=O)n(C)nnc3cc2c1=O | – | 63 | –
C#CCn1nnc2cc3c(=O)n([C@H](C)Cn4ncnn4)nnc3cc2c1=O | 0.57 | 20 | –
C[C@H](Cn1ccnn1)n1cnc2cc3c(=O)n(C)nnc3cc2c1=O | – | – | Activity (Rattus norvegicus [9]): 5%
C[C@H](Cn1ccnn1)n1nnc2cc3c(=O)n(C)nnc3cc2c1=O | 0.09 | 7 | –
CC#CCn1nnc2cc3c(=O)n([C@H](C)Cn4ncnn4)nnc3cc2c1=O | – | 43 | –
C[C@H](CNS(C)(=O)=O)n1nnc2cc3c(=O)n(C4CC4)nnc3cc2c1=O | 0.7 | – | Activity (Rattus norvegicus [3]): inactive
C[C@H](Cn1ncnn1)n1nnc2cc3c(cc2c1=O)OCN(C1CC1)C3=O | – | – | half-life [6]: 0.27 h
CC(C)n1nnc2cc3c(=O)n([C@H](C)Cn4ncnn4)nnc3cc2c1=O | 0.44 | 26 | –
C[C@H](Cn1cccn1)n1cnc2cc3c(=O)n(C4CC4)nnc3cc2c1=O | – | – | Activity (Rattus norvegicus [4]): 20%
O=c1c2cc3nnn(C4CC4)c(=O)c3cc2ncn1CCn1ncnn1 | – | 7 | –
COCCn1nnc2cc3c(=O)n([C@H](C)Cn4ncnn4)nnc3cc2c1=O | – | 34 | –
C[C@H](Cn1ncnn1)n1cnc2cc3c(=O)n(CC(F)F)nnc3cc2c1=O | – | – | Activity (Rattus norvegicus [9]): 16%
C[C@H](Cn1cc(C#N)cn1)n1cnc2cc3c(=O)n(C4CC4)nnc3cc2c1=O | – | 2 | –
C[C@H](Cn1ncc(C#N)n1)n1nnc2cc3c(=O)n(C4CC4)nnc3cc2c1=O | – | 17 | –
C[C@H](Cn1nccn1)n1nnc2cc3c(=O)n([C@H](C)Cn4nccn4)nnc3cc2c1=O | 0.4 | 9 | –
